# Measured values: article PMC3429353 (Bioorganic & medicinal chemistry, 2012)
# Key:
# Escherichia coli = experiment: Antimicrobial activity; format: cell-based
# [1] = test system: HT-29, MCF-7, NCI-H460, SF268, and IMR90 cells; experiment: Cytotoxicity against the panel of cell lines; format: cell-based, Human
# IMR90 cells = experiment: Cytotoxicity against IMR90 cells; format: cell-based, Human
# [2] = test system: M. tuberculosis, M. smegmatis, C. albicans, E. coli, and A. baumanii; experiment: Antimicrobial activity against a panel of microorganisms; format: cell-based
# Vero cells = experiment: Vero cell cytotoxicity
# Acinetobacter baumannii = experiment: Antimicrobial activity; format: cell-based
# Staphylococcus aureus = experiment: Antimicrobial activity; format: cell-based
# [3] = test system: Mycobacterium tuberculosis
# Mycobacterium smegmatis = experiment: Antimicrobial activity; format: cell-based
# Candida albicans = experiment: Antimicrobial activity; format: cell-based
compound,measurement,setting,value
Gentamycin [reference compound],MIC E. coli,Escherichia coli,2.3 µM
[C-]#[N+][C@@H]1[C@H]2c3c[nH]c4cccc(c34)C(C)(C)[C@@H]2CC[C@]1(C)C=C [Hapalindole H],IC50,"[1]; Homo sapiens, read-out: IC50 values (range over cell lines)",8.5 to 31.9 µM
"[C-]#[N+][C@H]1C(=C)[C@@H](C=C)C[C@@H]2[C@@H]1c1c[nH]c3cccc(c13)C2(C)C [Hapalindole X (1), hapalindole X]",cytotoxicity (in words),IMR90 cells,relatively low cytotoxicity
same,cytotoxicity (in words),"[1]; all four cancer cells (HT-29, MCF-7, NCI-H460, SF268)",moderate cytotoxicity
"C=C[C@]1(C)CC2C(=O)c3c(NC=O)cccc3C(C)(C)[C@H]2C[C@H]1O (relative stereo) [13-hydroxy dechlorofontonamide (3), 13-hydroxy dechlorofontonamide]",antimicrobial activity (in words),[2],no antimicrobial activity
same,cytotoxicity (in words),"[1]; all cell lines tested (HT-29, MCF-7, NCI-H460, SF268, IMR90)",inactive
[C-]#[N+]C1=C2c3c[nH]c4cccc(c34)C(C)(C)[C@H]2C[C@@H](Cl)[C@]1(C)C=C [Hapalindole I],cytotoxicity against Vero cells (in words),Vero cells,no detectable cytotoxicity
[C-]#[N+][C@@H]1[C@H]2C(=O)c3c(NC=O)cccc3C(C)(C)[C@@H]2CC[C@]1(C)C=C [Hapalonamide H],MIC A. baumanii,Acinetobacter baumannii,> 100 µM
same,MIC S. aureus,Staphylococcus aureus,> 100 µM
same,MIC M. tuberculosis,[3],1.2 µM
same,MIC E. coli,Escherichia coli,> 100 µM
same,MIC M. smegmatis,Mycobacterium smegmatis,34.3 µM
same,MIC C. albicans,Candida albicans,< 0.6 µM
same,IC50,"Vero cells; read-out: IC50 Vero, Vero cell toxicity",13.6 µM
"[C-]#[N+]C1=C2c3c[nH]c4cccc(c34)C(C)(C)[C@H]2CC[C@]1(C)C=C [Deschloro hapalindole I (2), deschloro hapalindole I]",antimicrobial activity (in words),[2],no antimicrobial activity
